In ChEMBL document CHEMBL5518181, “Studies of antibacterial activity (in vitro and in vivo) and mode of action for des-acyl tridecaptins (DATs)” (Eur J Med Chem, 2024):
Converted amounts (≈) assume the structure as drawn.

How the values were obtained:
Escherichia coli = experiment: Antibacterial activity against wild-type Escherichia coli ATCC 25922 assessed as inhibition of bacterial growth incubated for 18 hrs; assay type: functional; details: read-out: MIC100
Klebsiella pneumoniae = experiment: Antibacterial activity against wild-type Klebsiella pneumoniae ATCC 13883 assessed as inhibition of bacterial growth incubated for 18 hrs; assay type: functional; details: read-out: MIC100
[1] = Hemolytic activity in human red blood cells at 400 ug/ml incubated for 45 mins by spectrophotometric analysis relative to control; assay type: toxicity, cell-based, Erythrocyte; details: red blood cells (erythrocytes), at 400 µg/mL, read-out: Activity
[2] = Cytotoxicity against human HepG2 cells incubated for 40 hrs by celltiter-glo luminescent cell viability assay; assay type: toxicity, cell-based

Row | Compound | MIC (Escherichia coli) [µg/mL] | MIC (Klebsiella pneumoniae) [µg/mL] | hemolysis at 0.75 h, 400 ug/ml [1] [%] | IC50 at 40 h [2] [µg/mL]
1 | CC[C@H](C)[C@@H](NC(=O)[C@@H](NC(=O)[C@H](CCC(=O)O)NC(=O)[C@H](Cc1ccccc1)NC(=O)[C@@H](CCN)NC(=O)[C@H](CCN)NC(=O)[C@H](CO)NC(=O)[C@@H](Cc1c[nH]c2ccccc12)NC(=O)[C@@H](CO)NC(=O)CNC(=O)[C@@H](C)NC(=O)[C@H](N)C(C)C)C(C)C)C(=O)N[C@@H](C)C(=O)O | > 64 | > 64 | 0.1 | > 170
2 | CC[C@H](C)[C@@H](NC(=O)[C@@H](NC(=O)[C@H](CO)NC(=O)[C@H](Cc1ccccc1)NC(=O)[C@@H](CCN)NC(=O)[C@H](CCN)NC(=O)[C@H](CO)NC(=O)[C@@H](Cc1c[nH]c2ccccc12)NC(=O)[C@@H](CO)NC(=O)CNC(=O)[C@@H](CCN)NC(=O)[C@H](N)C(C)C)C(C)C)C(=O)N[C@@H](C)C(=O)O [listing 1 of 2 here] | > 64 | > 64 | – | –
3 | CC[C@H](C)[C@@H](NC(=O)[C@@H](NC(=O)[C@H](CCC(=O)O)NC(=O)[C@H](C)NC(=O)[C@@H](CCN)NC(=O)[C@H](CCN)NC(=O)[C@H](CO)NC(=O)[C@@H](Cc1c[nH]c2ccccc12)NC(=O)[C@@H](CO)NC(=O)CNC(=O)[C@@H](CCN)NC(=O)[C@H](N)C(C)C)C(C)C)C(=O)N[C@@H](C)C(=O)O | 64 (≈ 48.5 µM) | 64 (≈ 48.5 µM) | 2.5 | > 170
4 | CC[C@H](C)[C@@H](NC(=O)[C@@H](NC(=O)[C@H](CCC(=O)O)NC(=O)[C@H](Cc1ccccc1)NC(=O)[C@@H](CCN)NC(=O)[C@H](CCN)NC(=O)[C@H](CO)NC(=O)[C@@H](Cc1c[nH]c2ccccc12)NC(=O)[C@@H](CO)NC(=O)CNC(=O)[C@@H](CCN)NC(=O)[C@H](N)CCN)C(C)C)C(=O)N[C@@H](C)C(=O)O | > 64 | > 64 | 0 | > 170
5 | CC[C@H](C)[C@@H](NC(=O)[C@@H](NC(=O)[C@H](CCC(=O)O)NC(=O)[C@H](Cc1ccccc1)NC(=O)[C@@H](CCN)NC(=O)[C@H](CCN)NC(=O)[C@H](CO)NC(=O)[C@@H](Cc1c[nH]c2ccccc12)NC(=O)[C@@H](C)NC(=O)CNC(=O)[C@@H](CCN)NC(=O)[C@H](NC(=O)[C@H](C)N)C(C)C)C(C)C)C(=O)N[C@@H](C)C(=O)O | 16 (≈ 11 µM) | 32 (≈ 22.1 µM) | 0 | 139 (≈ 95.9 µM)
6 | CC[C@H](C)[C@@H](NC(=O)[C@@H](NC(=O)[C@H](CCC(=O)O)NC(=O)[C@H](Cc1ccccc1)NC(=O)[C@@H](CN)NC(=O)[C@H](CCN)NC(=O)[C@H](CO)NC(=O)[C@@H](Cc1c[nH]c2ccccc12)NC(=O)[C@@H](CO)NC(=O)CNC(=O)[C@@H](CCN)NC(=O)[C@H](NC(=O)[C@H](C)N)C(C)C)C(C)C)C(=O)N[C@@H](C)C(=O)O | > 64 | > 64 | 0 | > 170
7 | CC[C@H](C)[C@@H](NC(=O)[C@@H](NC(=O)[C@H](CCC(=O)O)NC(=O)[C@H](Cc1ccccc1)NC(=O)[C@@H](CCN)NC(=O)[C@H](CCN)NC(=O)[C@H](CO)NC(=O)[C@@H](Cc1c[nH]c2ccccc12)NC(=O)[C@@H](CO)NC(=O)CNC(=O)[C@@H](CCN)NC(=O)[C@H](N)C(C)C)C(C)C)C(=O)N[C@H](C(=O)O)C(C)(C)C | 32 (≈ 22.3 µM) | 32 (≈ 22.3 µM) | 12.1 | 43 (≈ 29.9 µM)
8 | CC[C@H](C)[C@@H](NC(=O)[C@H](CC1CCCCC1)NC(=O)[C@H](CCC(=O)O)NC(=O)[C@H](Cc1ccccc1)NC(=O)[C@@H](CCN)NC(=O)[C@H](CCN)NC(=O)[C@H](CO)NC(=O)[C@@H](Cc1c[nH]c2ccccc12)NC(=O)[C@@H](CO)NC(=O)CNC(=O)[C@@H](CCN)NC(=O)[C@H](NC(=O)[C@H](C)N)C(C)C)C(=O)N[C@@H](C)C(=O)O [listing 1 of 2 here] | – | – | 59 | 9 (≈ 5.92 µM)
9 | CC[C@H](C)[C@@H](NC(=O)[C@@H](NC(=O)[C@H](CCC(=O)O)NC(=O)[C@H](Cc1ccccc1)NC(=O)[C@@H](CCN)NC(=O)[C@H](CN)NC(=O)[C@H](CO)NC(=O)[C@@H](Cc1c[nH]c2ccccc12)NC(=O)[C@@H](CO)NC(=O)CNC(=O)[C@@H](CCN)NC(=O)[C@H](NC(=O)[C@H](C)N)C(C)C)C(C)C)C(=O)N[C@@H](C)C(=O)O | > 64 | > 64 | 0 | > 170
10 | CC[C@H](C)[C@@H](NC(=O)[C@@H](NC(=O)[C@H](CCC(=O)O)NC(=O)[C@H](Cc1ccccc1)NC(=O)[C@@H](CCN)NC(=O)[C@H](C)NC(=O)[C@H](CO)NC(=O)[C@@H](Cc1c[nH]c2ccccc12)NC(=O)[C@@H](CO)NC(=O)CNC(=O)[C@@H](CCN)NC(=O)[C@H](N)C(C)C)C(C)C)C(=O)N[C@@H](C)C(=O)O | > 64 | 64 (≈ 46.9 µM) | 5.9 | 126 (≈ 92.3 µM)
11 | CC[C@H](C)[C@H](NC(=O)[C@H](CCC(=O)O)NC(=O)[C@H](Cc1ccccc1)NC(=O)[C@@H](CCN)NC(=O)[C@H](CCN)NC(=O)[C@H](CO)NC(=O)[C@@H](Cc1c[nH]c2ccccc12)NC(=O)[C@@H](CO)NC(=O)CNC(=O)[C@@H](CCN)NC(=O)[C@H](N)C(C)C)C(=O)N[C@@H](C(=O)N[C@@H](C)C(=O)O)[C@@H](C)CC | 32 (≈ 22.7 µM) | 16 (≈ 11.4 µM) | 70.6 | > 60
12 | CC[C@H](C)[C@@H](NC(=O)[C@@H](NC(=O)[C@H](CCC(=O)O)NC(=O)[C@H](Cc1ccccc1)NC(=O)[C@@H](CCN)NC(=O)[C@H](CCN)NC(=O)[C@H](CO)NC(=O)[C@@H](Cc1c[nH]c2ccccc12)NC(=O)[C@@H](CO)NC(=O)[C@H](CCCCN)NC(=O)[C@@H](CCN)NC(=O)[C@H](NC(=O)[C@H](C)N)C(C)C)C(C)C)C(=O)N[C@@H](C)C(=O)O | 16 (≈ 10.4 µM) | 32 (≈ 20.8 µM) | 0.5 | > 170
13 | CC[C@H](C)[C@@H](NC(=O)[C@@H](NC(=O)[C@H](CCC(=O)O)NC(=O)[C@H](Cc1ccccc1)NC(=O)[C@@H](CCN)NC(=O)[C@H](CCN)NC(=O)[C@H](CO)NC(=O)[C@@H](Cc1c[nH]c2ccccc12)NC(=O)[C@@H](CO)NC(=O)CNC(=O)[C@H](N)CCN)C(C)C)C(=O)N[C@@H](C)C(=O)O | > 64 | > 64 | 0 | > 170
14 | CC[C@H](C)[C@@H](NC(=O)[C@@H](NC(=O)[C@H](CCC(=O)O)NC(=O)[C@H](Cc1ccccc1)NC(=O)[C@@H](CCN)NC(=O)[C@H](CCN)NC(=O)[C@H](CO)NC(=O)[C@@H](Cc1c[nH]c2ccccc12)NC(=O)[C@@H](CO)NC(=O)CNC(=O)[C@@H](CCN)NC(=O)[C@H](NC(=O)[C@H](C)N)C(C)C)C(C)(C)C)C(=O)N[C@@H](C)C(=O)O | 2 (≈ 1.35 µM) | 2 (≈ 1.35 µM) | 82.7 | 12 (≈ 8.11 µM)
15 | CC[C@H](C)[C@@H](NC(=O)[C@@H](NC(=O)[C@H](CCC(=O)O)NC(=O)[C@H](Cc1ccccc1)NC(=O)[C@@H](CCN)NC(=O)[C@H](CCN)NC(=O)[C@H](CO)NC(=O)[C@@H](Cc1c[nH]c2ccccc12)NC(=O)[C@@H](CO)NC(=O)CNC(=O)[C@@H](CCN)NC(=O)[C@H](NC(=O)[C@@H](N)CC(=O)O)C(C)C)C(C)C)C(=O)N[C@@H](C)C(=O)O | > 64 | > 64 | 0 | > 170
16 | CC[C@H](C)[C@@H](NC(=O)[C@@H](NC(=O)[C@H](CCC(=O)O)NC(=O)[C@H](Cc1ccccc1)NC(=O)[C@@H](CCN)NC(=O)[C@H](CCN)NC(=O)[C@H](CO)NC(=O)[C@@H](Cc1c[nH]c2ccccc12)NC(=O)[C@@H](CO)NC(=O)CNC(=O)[C@@H](CN)NC(=O)[C@H](N)C(C)C)C(C)C)C(=O)N[C@@H](C)C(=O)O | 32 (≈ 23.2 µM) | 32 (≈ 23.2 µM) | 6.3 | 125 (≈ 90.5 µM)
17 | CC[C@H](C)[C@@H](NC(=O)[C@@H](NC(=O)[C@H](CO)NC(=O)[C@H](Cc1ccccc1)NC(=O)[C@@H](CCN)NC(=O)[C@H](CCN)NC(=O)[C@H](CO)NC(=O)[C@@H](Cc1c[nH]c2ccccc12)NC(=O)[C@@H](CO)NC(=O)CNC(=O)[C@@H](CCN)NC(=O)[C@H](N)C(C)C)C(C)C)C(=O)N[C@@H](C)C(=O)O [listing 2 of 2 here] | – | – | 0.4 | > 170
18 | CC[C@H](C)[C@@H](NC(=O)[C@H](CC1CCCCC1)NC(=O)[C@H](CCC(=O)O)NC(=O)[C@H](Cc1ccccc1)NC(=O)[C@@H](CCN)NC(=O)[C@H](CCN)NC(=O)[C@H](CO)NC(=O)[C@@H](Cc1c[nH]c2ccccc12)NC(=O)[C@@H](CO)NC(=O)CNC(=O)[C@@H](CCN)NC(=O)[C@H](NC(=O)[C@H](C)N)C(C)C)C(=O)N[C@@H](C)C(=O)O [listing 2 of 2 here] | 2 (≈ 1.32 µM) | 2 (≈ 1.32 µM) | – | –
19 | CC[C@H](C)[C@@H](NC(=O)[C@@H](NC(=O)[C@H](CCC(=O)O)NC(=O)[C@H](CC1CCCCC1)NC(=O)[C@@H](CCN)NC(=O)[C@H](CCN)NC(=O)[C@H](CO)NC(=O)[C@@H](Cc1c[nH]c2ccccc12)NC(=O)[C@@H](CO)NC(=O)CNC(=O)[C@@H](CCN)NC(=O)[C@H](NC(=O)[C@H](C)N)C(C)C)C(C)C)C(=O)N[C@@H](C)C(=O)O [listing 1 of 2 here] | 4 (≈ 2.72 µM) | 2 (≈ 1.36 µM) | – | –
20 | CC[C@H](C)[C@@H](NC(=O)[C@@H](NC(=O)[C@H](CCC(=O)O)NC(=O)[C@H](CC1CCCCC1)NC(=O)[C@@H](CCN)NC(=O)[C@H](CCN)NC(=O)[C@H](CO)NC(=O)[C@@H](Cc1c[nH]c2ccccc12)NC(=O)[C@@H](CO)NC(=O)CNC(=O)[C@@H](CCN)NC(=O)[C@H](NC(=O)[C@H](C)N)C(C)C)C(C)C)C(=O)N[C@@H](C)C(=O)O [listing 2 of 2 here] | – | – | – | 37 (≈ 25.1 µM)
21 | CC(C)[C@H](NC(=O)[C@H](CCC(=O)O)NC(=O)[C@H](Cc1ccccc1)NC(=O)[C@@H](CCN)NC(=O)[C@H](CCN)NC(=O)[C@H](CO)NC(=O)[C@@H](Cc1c[nH]c2ccccc12)NC(=O)[C@@H](CO)NC(=O)CNC(=O)[C@@H](CCN)NC(=O)[C@H](N)C(C)C)C(=O)N[C@@H](C(=O)N[C@@H](C)C(=O)O)C(C)(C)C | 32 (≈ 22.9 µM) | 8 (≈ 5.74 µM) | 14.4 | –
